In patent US9040673B2, “Synthesis and identification of novel RSK-specific inhibitors” (University of Virginia Patent Foundation, priority 2009, dated 2015):
Where two headings read alike, the source gives them in different places.

Assays:
MCF-7 cells = assay: MCF-7 cell proliferation (CellTiter-Glo cell viability); format: cell-based, human; details: for inhibition of MCF-7 cell growth: 50 uM; for IC50: 48 hours of treatment, read-out: concentration inhibiting proliferation of MCF-7 cells by 50%
RSK2 = RSK2 (Homo sapiens, UniProt P51812)
MCF-10A cells = assay: MCF-10A cell proliferation; format: cell-based, human
Experimental: The cell number was measured after 48 h of treatment. Values given are the fold proliferation as a percentage of that observed with vehicle-treated cells. Points, mean (n=2 in quadruplicate); bars=SD.
FIGS. 8A-8D SL0101-1 inhibits the proliferation of cancer cells but not normal cells. […] Cell viability was measured at indicated time points. Proliferation assays were conducted using CellTiter-Glo Luminescent Cell Viability Assay (Promega), performed 44 hrs after treatment for FIGS. 8A &B and at indicated points for FIG. 8C. The data are expressed relative to time 0.
(§1) Cell Culture. For proliferation studies cells were seeded at 2500 to 5000 cells per well in 96 well tissue culture plates in the appropriate medium as described by American Type Culture Collection. After 24 hr, the medium was replaced with medium containing compound or vehicle as indicated. Cell viability was measured at indicated time points using CellTiter-Glo™ assay reagent (Promega) according to manufacturer's protocol. For in vivo inhibition studies, cells were seeded at 2.5×10^5 cells/well in 12 well cell culture clusters. After 24 hr, the cells were serum starved for 24 hr then incubated with compound or vehicle for 3 hr prior to a 30 min PDB stimulation. Cells were lysed as previously described (J. Biol. Chem. 273, 13317-13323 (1998)). The lysates were normalized for total protein, electrophoresed and immunoblotted. For cell imaging, Ha-Ras-transformed NIH/3T3 cells were seeded on LABTEK II chamber slides (Nalge) at a density of 1×10^4 cells/well. After 24 hr, fresh medium was added the indicated compounds or vehicle. Images were taken 48 hr after treatment at a magnification of 20×.

HUVEC cells = assay: VEGF-induced capillary network formation in HUVEC cells; format: cell-based, human; details: 20 μM, 10 ng/ml VEGF, 20 hours
Experimental: Interfering with tube formation is a characteristic common to anti-angiogenic treatments. HUVEC cells were seeded at a density of 1×10^5 cells per well in 24-well culture dishes coated in growth factor-reduced Matrigel (BD Biosciences). […] The cells were incubated at 37° C. for 20 hours. Images of the cells were captured for analysis of the capillary-like network.

p140, a RSK substrate = assay: PDB-induced p140 phosphorylation in MCF-7 cells (immunoblot); format: cell-based, human; details: 50 μM, 3 hr pre-incubation, 500 nM PDB 30 min
Experimental: To determine whether SL0101-1 inhibits RSK in intact cells, phosphorylation of p140, a RSK substrate of unknown function, was examined in a human breast cancer cell line, MCF-7. MCF-7 and MCF-10A cells were pre-incubated with vehicle, 50 μM U0126 or the indicated concentration of SL0101-1 for 3 hr (FIG. 8D). Cells were treated with 500 nM PDB for 30 min prior to lysis. Protein concentration of lysates was measured and lysates were electrophoresed, transferred and immunoblotted. […] Pre-incubation of cells with 100 μM SL0101-1 abrogates phorbol dibutyrate (PDB)-induced p140 phosphorylation as does 50 μM U0126, a MEK inhibitor.
as §1, with “The lysates were normalized for total protein, electrophoresed and immunoblotted. For cell imaging, Ha-Ras-transformed NIH/3T3 cells were seeded on LABTEK II chamber slides (Nalge) at a density of 1×10^4 cells/well. After 24 hr, fresh medium was added the indicated compounds or vehicle. Images were taken 48 hr after treatment at a magnification of 20×.” left out

CaLu-1 cells = assay: Calu-1 wound migration after siRNA transfection; format: cell-based, human; details: wound 48 hours after, 19 hr
Experimental: Calu-1 cells were transiently transfected in suspension with either control siRNA, RSK1-specific siRNA, RSK2-specific siRNA or both RSK-1 and RSK2-specific siRNA. […] After four hours, the transfection medium was removed and the cells were plated in […] tissue-culture clusters. Forty-eight hours after transfection, scratches were made in the monolayer of cells using sterile, disposable micropipette tips. Images were captured-immediately following the wounding, and 19 hours after wounding. […] By 19 hr, the cells transfected with control siRNA have migrated into the wound. […] Thus, RSK activity is required for Calu-1 migration. More particularly, the ability of the entire monolayer to respond to the wound is depressed in the SL0101-treated cells as well as the siRNA transfected.

[1] = indicated concentration, 48 h of treatment

Sequence of RSK2 (P51812 1-397 limits assumed): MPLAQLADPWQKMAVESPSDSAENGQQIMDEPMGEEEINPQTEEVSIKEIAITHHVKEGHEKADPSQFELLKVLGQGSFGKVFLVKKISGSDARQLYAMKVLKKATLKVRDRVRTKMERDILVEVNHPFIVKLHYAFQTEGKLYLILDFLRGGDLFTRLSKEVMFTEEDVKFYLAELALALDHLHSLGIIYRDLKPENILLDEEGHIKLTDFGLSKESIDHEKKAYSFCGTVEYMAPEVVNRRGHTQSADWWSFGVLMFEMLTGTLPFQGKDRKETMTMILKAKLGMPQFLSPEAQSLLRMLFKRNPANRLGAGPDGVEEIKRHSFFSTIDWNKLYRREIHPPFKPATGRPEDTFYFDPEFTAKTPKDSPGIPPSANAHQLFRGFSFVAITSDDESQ

CC(=O)OC1C(C)OC(Oc2c(-c3ccc(O)cc3)oc3cc(O)cc(O)c3c2=O)C(OC(C)=O)C1O [2″,4″-di-O-acetyl-SL0101, kaempferol 3-O-(2″,4″-di-O-acetyl-α-L-rhamnopyranoside)]
inhibition of MCF-7 cell growth (MCF-7 cells): similarly effective at inhibiting MCF-7 cell growth | IC50 (RSK2): ~0.26 µM

CC(=O)O[C@@H]1[C@@H](OC(C)=O)[C@H](C)O[C@@H](Oc2c(-c3ccc(O)cc3)oc3cc(O)cc(O)c3c2=O)[C@@H]1OC(C)=O [3Ac-SL0101, kaempferol 3-O-(2″,3″,4″-tri-O-acetyl-α-L-rhamnopyranoside)]
proliferation of MCF-7 cells (MCF-7 cells; [1]): selectively inhibits MCF-7 breast cancer cell proliferation | proliferation of MCF-10A (nontransformed) cells (MCF-10A cells; [1]): not nontransformed breast cell proliferation

CC(=O)OC1C(C)OC(Oc2c(-c3ccc(O)cc3)oc3cc(O)cc(O)c3c2=O)C(O)C1O [4″-mono-O-acetyl-SL0101, kaempferol 3-O-(4″-mono-O-acetyl-α-L-rhamnopyranoside)]
inhibition of MCF-7 cell growth (MCF-7 cells): did not inhibit MCF-7 cell proliferation | IC50 (RSK2): ~0.14 µM

Cn1cc(C2=C(c3cn(CCCSC(=N)N)c4ccccc34)C(=O)NC2=O)c2ccccc21 [Ro 318220]
proliferation of MCF-7 cells (MCF-7 cells; 500 nM): attenuated proliferation | proliferation of MCF-10A cells (MCF-10A cells; 500 nM): attenuated proliferation

CC(C)c1cc(/C=C(\C#N)C(=O)NCCCc2ccccc2)cc(C(C)C)c1O [SU1498]
capillary-like network formation (HUVEC cells): rounded nodes with few tube-like projections

N#CC(=C(/N)Sc1ccccc1N)/C(C#N)=C(\N)Sc1ccccc1N [U0126]
proliferation of MCF-7 cells (MCF-7 cells; 50 μM (FIG. 8A)): halted proliferation | proliferation of MCF-10A cells (MCF-10A cells; 50 μM (FIG. 8A)): halted proliferation | PDB-induced p140 phosphorylation (p140, a RSK substrate): abrogates

CC(=O)OC1C(C)CC(Oc2c(-c3ccc(O)cc3)oc3cc(O)cc(O)c3c2=O)C(O)C1O [compound 12, Kaempferol L-carbarhamnoside 4″-acetate]
proliferation of MCF-7 cells (MCF-7 cells; [1]): inhibit proliferation

CC(=O)OC1C(C)CC(Oc2c(-c3ccc(O)cc3)oc3cc(O)cc(O)c3c2=O)C(OC(C)=O)C1O [compound 13, Kaempferol L-carbarhamnoside 2″,4″-diacetate]
IC50 (MCF-7 cells): ~30 µM | proliferation of MCF-7 cells (MCF-7 cells; [1]): inhibit proliferation

CC(=O)OC1C(C)CC(Oc2c(-c3ccc(O)cc3)oc3cc(O)cc(O)c3c2=O)C(O)C1OC(C)=O [compound 14, Kaempferol L-carbarhamnoside 3″,4″-diacetate]
IC50 (MCF-7 cells; Homo sapiens, MCF7): ~30 µM | proliferation of MCF-7 cells (MCF-7 cells; [1]): inhibit proliferation

CCCC1OC(Oc2c(-c3ccc(O)cc3)oc3cc(O)cc(O)c3c2=O)C(O)C(OC(C)=O)C1OC(C)=O [compound 16, Kaempferol-6″ethyl-L-rhamnoside-3″,4″-diacetate]
IC50 (MCF-7 cells; Homo sapiens, MCF7): ~30 µM | proliferation of MCF-7 cells (MCF-7 cells; [1]): inhibit proliferation

O=c1c(O)c(-c2ccc(O)cc2)oc2cc(O)cc(O)c12 [kaempferol]
growth of MCF-7 cells (MCF-7 cells; concentration not given): slows growth | growth of MCF-10A cells (MCF-10A cells; concentration not given): slows growth

RSK1-specific siRNA: custom oligonucleotide to Rsk1 mRNA, AAGAAGCUGGACUUCAGCCGU; SEQ ID NO: 1 (listed as RNA, chemistry not given here; listed as Homo sapiens)
migration of Calu-1 cells into wound (CaLu-1 cells): reduced ability to migrate into the wound

RSK2-specific siRNA: custom oligonucleotide to Rsk2 mRNA, AACCUAUGGGAGAGGAGGAGA; SEQ ID NO: 2 (listed as RNA, chemistry not given here; listed as Homo sapiens)
migration of Calu-1 cells into wound (CaLu-1 cells): reduced ability to migrate into the wound
